Target: Complex I
Experiment: Assay A: Determination of Complex I mediated ROS-inhibition (CI)
Assay type: biochemical
Conditions: read-out: CI IC50; ROS generation by Complex I purified from bovine heart, Amplex Red/horse radish peroxidase readout, 8 point concentration-response

Structure (SMILES) | IC50
CC(C)N1C(=O)/C(=C2/COCCN2)c2cc(NC3CCCC3)ccc21 [Compound 94] | 558 nM
CC(Nc1ccc2c(c1)/C(=C1\COCCN1)C(=O)N2C(C)C)c1nccs1 (stereo not drawn) [Compound 144] | 49 nM
CC(C)Nc1ccc2c(c1)/C(=C1\CN(C3COC3)CCN1)C(=O)N2C(C)C [Compound 114] | 58 nM
CC(C)Nc1ccc2c(c1)/C(=C1\CCN(C(C)C)CCN1)C(=O)N2C1CCOCC1 [Compound 164] | 172 nM
O=C1/C(=C2/CC3(CN2)COC3)c2cc(NC3CCOC3)ccc2N1C1CCOCC1 (stereo not drawn) [Compound 70] | 193 nM
CC(=O)N1CCN/C(=C2\C(=O)N(C(C)C)c3ccc(NC(C)C)cc32)C1 [Compound 159] | 120 nM
CC(C)Nc1ccc2c(c1)/C(=C1\CCOCCN1)C(=O)N2C(C)C [Compound 82] | 91 nM
O=C1/C(=C2/COCCN2)c2cc(NCc3cc[nH]n3)ccc2N1C1CCOCC1 [Compound 21] | 108 nM
O=C1/C(=C2/COCCN2)c2cc(NCC3CC3)ccc2N1C1CCOCC1 [Compound 103] | 76 nM
CC(C)Nc1ccc2c(c1)C(=C1CCOCC1)C(=O)N2C1CCOCC1 [Compound 6] | 533 nM
CN(C)c1ccc2c(c1)/C(=C1\CCOCCN1)C(=O)N2C [Compound 41] | 52 nM
CC1OCCC1Nc1ccc2c(c1)/C(=C1\COCCN1)C(=O)N2C1CCOCC1 (stereo not drawn) [Compound 174] | 39 nM
CC(C)Nc1ccc2c(c1)/C(=C1\COCCN1)C(=O)N2C(C)C [Compound 44] | 44 nM
O=C1/C(=C2/COCCN2)c2cc(NC3CCOC3)ccc2N1C1CCOC1 (stereo not drawn) [Compound 168] | 41 nM
CC(C)N1C(=O)/C(=C2/CCOCCN2)c2cc(N3C(C)CCC3C)ccc21 (stereo not drawn) [Compound 128] | 44 nM
CC(C)Nc1ccc2c(c1)/C(=C1\COCC(C)N1)C(=O)N2C1CCOCC1 (stereo not drawn) [Compound 33] | 32 nM
CCC(CC)Nc1ccc2c(c1)/C(=C1\COCCN1)C(=O)N2C(C)C [Compound 171] | 206 nM
COC1COCCC1Nc1ccc2c(c1)/C(=C1\COCCN1)C(=O)N2C(C)C (stereo not drawn) [Compound 16] | 313 nM
CC(C)N1C(=O)C(=C2CCOCC2)c2cc(NC3CCCC3)ccc21 [Compound 116] | 539 nM
CC(=O)N1CC[C@H](N2C(=O)/C(=C3/COCCN3)c3cc(NC(C)C)ccc32)C1 [Compound 170] | 23 nM
CC(Nc1ccc2c(c1)/C(=C1\COCCN1)C(=O)N2C1COC1)C1CC1 (stereo not drawn) [Compound 67] | 225 nM
COCC(C)Nc1ccc2c(c1)/C(=C1\COCCN1)C(=O)N2C1CCOCC1 (stereo not drawn) [Compound 99] | 451 nM

Structure (SMILES) | IC50
O=C1/C(=C2/COCCN2)c2cc(NC3CCC3)ccc2N1C1COC1 [Compound 51] | 135 nM
CCC(CC)Nc1ccc2c(c1)/C(=C1\COCCN1)C(=O)N2C1COC1 [Compound 136] | 213 nM
CC1CCN(c2ccc3c(c2)/C(=C2\COCCN2)C(=O)N3C2CCOCC2)CC1 [Compound 85] | 69 nM
CC(C)N1C(=O)/C(=C2/CCCCN2)c2cc(N3CCOCC3)ccc21 [Compound 158] | 243 nM
CC(C)Nc1ccc2c(c1)/C(=C1\COCCN1)C(=O)N2C1COCCOC1 [Compound 26] | 20 nM
CN(C)c1ccc2c(c1)/C(=C1\COCCN1)C(=O)N2C [Compound 2] | 80 nM
CCC(C)Nc1ccc2c(c1)/C(=C1\COCCN1)C(=O)N2C1CCOCC1 (stereo not drawn) [Compound 59] | 122 nM
CC(C)N1C(=O)/C(=C2/COCCN2)c2cc(N3CCOCC3)ccc21 [Compound 166] | 75 nM
CC(C)N1CCN/C(=C2\C(=O)N(C)c3ccc(N4CCCC4)cc32)CC1 [Compound 110] | 264 nM
CC(=O)N1CCN/C(=C2\C(=O)N(C3CCOCC3)c3ccc(N4CCCC4)cc32)CC1 [Compound 12] | 194 nM
CC(Nc1ccc2c(c1)/C(=C1\COCCN1)C(=O)N2C1CCOCC1)c1ccnn1C (stereo not drawn) [Compound 79] | 20 nM
CC(Nc1ccc2c(c1)/C(=C1\COCCN1)C(=O)N2C(C)C)c1cnccn1 (stereo not drawn) [Compound 57] | 73 nM
CN1CCC/C1=C1/C(=O)N(C2CCOCC2)c2ccc(NC3CCC3)cc21 [Compound 9] | 398 nM
O=C1/C(=C2/COCCN2)c2cc(N3CCCC3)ccc2N1C1CCOCC1 [Compound 117] | 738 nM
CC1CCC(C)N1c1ccc2c(c1)/C(=C1\CCOCCN1)C(=O)N2C1CCOCC1 (stereo not drawn) [Compound 29] | 132 nM
COC1COCCC1Nc1ccc2c(c1)/C(=C1\COCCN1)C(=O)N2C1CCOCC1 (stereo not drawn) [Compound 149] | 161 nM
CC(=O)N1CCN/C(=C2\C(=O)N(C3CCOCC3)c3ccc(NC(C)C)cc32)C1 [Compound 111] | 119 nM
CC(C)N1C(=O)C(=C2CCOCC2)c2cc(NC3CCC3)ccc21 [Compound 25] | 707 nM
CC(Nc1ccc2c(c1)/C(=C1\COCCN1)C(=O)N2C1CCOCC1)c1cnccn1 (stereo not drawn) [Compound 146] | 66 nM
CC(C)Nc1ccc2c(c1)/C(=C1\CN(C(C)C)CCN1)C(=O)N2C1CCOCC1 [Compound 46] | 86 nM
O=C1/C(=C2/COCCN2)c2cc(NC3CCOCC3)ccc2N1C1CCOC1 (stereo not drawn) [Compound 32] | 31 nM
CC(C)N1C(=O)/C(=C2/COCCN2)c2cc(NC3CCOCC3F)ccc21 (stereo not drawn) [Compound 73] | 66 nM

Structure (SMILES) | IC50
O=C1/C(=C2/CCOCCN2)c2cc(NC3CCCC3)ccc2N1C1CCOCC1 [Compound 13] | 84 nM
CC1COC/C(=C2/C(=O)N(C3CCOCC3)c3ccc(N4C(C)CCC4C)cc32)N1 (stereo not drawn) [Compound 93] | 24 nM
CN(C)c1ccc2c(c1)/C(=C1\CCCN1)C(=O)N2C1CCOCC1 [Compound 42] | 42 nM
CC(C)N1C(=O)/C(=C2/COCCN2)c2cc(NCC3CC3)ccc21 [Compound 58] | 100 nM
CC(Nc1ccc2c(c1)/C(=C1\COCCN1)C(=O)N2C(C)C)c1ccnn1C (stereo not drawn) [Compound 17] | 22 nM
CN1C(=O)/C(=C2/CCNCCN2)c2cc(N3CCCC3)ccc21 [Compound 40] | 166 nM
COCC(C)Nc1ccc2c(c1)/C(=C1\COCCN1)C(=O)N2C1COC1 (stereo not drawn) [Compound 137] | 138 nM
CC(C)C(C)Nc1ccc2c(c1)/C(=C1\COCCN1)C(=O)N2C(C)C (stereo not drawn) [Compound 95] | 151 nM
O=C1C(=C2CCOCC2)c2cc(N3CCCC3)ccc2N1C1CCOCC1 [Compound 112] | 352 nM
CC(C)CNc1ccc2c(c1)/C(=C1\COCCN1)C(=O)N2C(C)C [Compound 173] | 367 nM
CC(C)Nc1ccc2c(c1)C(=C1CCOCC1)C(=O)N2C(C)C [Compound 47] | 153 nM
CNc1ccc2c(c1)/C(=C1\CCCN1)C(=O)N2C1CCOCC1 [Compound 43] | 11 nM
CC(C)N1C(=O)/C(=C2/CCCCN2)c2cc(N(C3CCC3)C3CCC3)ccc21 [Compound 113] | 106 nM
CN1CCC/C1=C1/C(=O)N(C2CCOCC2)c2ccc(NC3CCOC3)cc21 (stereo not drawn) [Compound 49] | 282 nM
O=C1/C(=C2/CCN(C3COC3)CCN2)c2cc(N3CCCC3)ccc2N1C1CCOCC1 [Compound 121] | 75 nM
CC(C)N1CCC(Nc2ccc3c(c2)/C(=C2\COCCN2)C(=O)N3C2CCOCC2)CC1 [Compound 19] | 22 nM
CC(Nc1ccc2c(c1)/C(=C1\COCCN1)C(=O)N2C1CCOCC1)C1CC1 (stereo not drawn) [Compound 20] | 73 nM
CC(C)Nc1ccc2c(c1)/C(=C1\COCCN1)C(=O)N2C [Compound 63] | 22 nM
CC(C)Nc1ccc2c(c1)/C(=C1\COCCCN1)C(=O)N2C1CCOCC1 [Compound 167] | 65 nM
CC1CCC(C)N1c1ccc2c(c1)/C(=C1\COCCN1)C(=O)N2C1CCOC1 (stereo not drawn) [Compound 162] | 464 nM
COCC(C)N1C(=O)/C(=C2/COCCN2)c2cc(NC(C)C)ccc21 (stereo not drawn) [Compound 28] | 69 nM
CN1C(=O)/C(=C2/CCN(C3COC3)CCN2)c2cc(N3CCCC3)ccc21 [Compound 45] | 259 nM

Structure (SMILES) | IC50
CN(C)c1ccc2c(c1)/C(=C1\CCCCCN1)C(=O)N2C [Compound 105] | 64 nM
O=C1/C(=C2/COCCN2)c2cc(N3CCOCC3)ccc2N1C1CCOCC1 [Compound 4] | 242 nM
CC(C)N1C(=O)C(=C2CCOCC2)c2cc(N3CCCC3)ccc21 [Compound 7] | 350 nM
O=C1/C(=C2/COCCN2)c2cc(NC3CCCC3)ccc2N1C1COC1 [Compound 65] | 194 nM
CC(C)N1C(=O)/C(=C2/COCCN2)c2cc(NCc3cc[nH]n3)ccc21 [Compound 74] | 46 nM
CC(C)Nc1ccc2c(c1)/C(=C1\CN(C3COC3)CCN1)C(=O)N2C1CCOCC1 [Compound 5] | 81 nM
CC(C)N1C(=O)/C(=C2/COCCN2)c2cc(NC3CCOCC3)ccc21 [Compound 36] | 150 nM
CC(Nc1ccc2c(c1)/C(=C1\COCCN1)C(=O)N2C(C)C)c1ccncc1 (stereo not drawn) [Compound 143] | 79 nM
CC(C)N1C(=O)/C(=C2/COCCN2)c2cc(NCC3CCOC3)ccc21 (stereo not drawn) [Compound 39] | 67 nM
CC(C)Nc1ccc2c(c1)/C(=C1\COCCN1)C(=O)N2C1CCOC1 (stereo not drawn) [Compound 163] | 172 nM
CC1CCC(C)N1c1ccc2c(c1)/C(=C1\COCCN1)C(=O)N2C (stereo not drawn) [Compound 84] | 333 nM
CC(C)Nc1ccc2c(c1)/C(=C1\CN(C3CCOCC3)CCN1)C(=O)N2C(C)C [Compound 134] | 62 nM
CN1CCC(Nc2ccc3c(c2)/C(=C2\COCCN2)C(=O)N3C2CCOCC2)CC1 [Compound 150] | 48 nM
CC(C)Nc1ccc2c(c1)/C(=C1\CCCN1C)C(=O)N2C1CCOCC1 [Compound 48] | 122 nM
O=C1/C(=C2/COCCN2)c2cc(NC3CCOCC3F)ccc2N1C1CCOCC1 (stereo not drawn) [Compound 80] | 84 nM
CC(C)N1C(=O)/C(=C2/CCCN2C)c2cc(NC3CCC3)ccc21 [Compound 161] | 957 nM
CN1C(=O)/C(=C2/CCN(C(=O)OCc3ccccc3)CCN2)c2cc(N3CCCC3)ccc21 [Compound 152] | 477 nM
CC1CCC(C)N1c1ccc2c(c1)/C(=C1\COCCN1)C(=O)N2C1CCOCC1 (stereo not drawn) [Compound 156] | 77 nM
CN(C)c1ccc2c(c1)/C(=C1/NCCN1c1ccccc1)C(=O)N2C [Compound 106] | 327 nM
O=C(CCO)Nc1ccc2c(c1)/C(=C1\COCCN1)C(=O)N2C1CCOC1 (stereo not drawn) [Compound 169] | 944 nM
CC(Nc1ccc2c(c1)/C(=C1\COCCN1)C(=O)N2C1CCOCC1)C1CCC1 (stereo not drawn) [Compound 148] | 39 nM

Source: patent US11795147B2, “Modulators of complex I” (Boehringer Ingelheim International GmbH, priority 2019, dated 2023)
